Assays:
Assay type in all cases: cell-based
PRMT5 [1] = target: PRMT5 (Homo sapiens, UniProt O14744); assay: Ubiquitination assay in U2OS cells after siRNA; parameters: The indicated GST proteins were incubated with U2OS cell lysate; endogenous in cells; host or cells: U2OS; details: PRMT5 vs control siRNA, MG132 20 nM 4 h
Procedure: U2OS cells were transfected with PRMT5 (P) or control (C) siRNA. After 24 h, cells were transfected with expression vectors encoding wild-type (WT) E2F-1 or the KKK mutant (2 μg) and His 6-ubiquitin (4 μg) as indicated. Cells were treated with MG132 ([…]) for 4 h before being collected. Cell lysates and Ni2+ pull-down eluates were analysed as described. Quantitation of ubiquitin signals was performed using ImageJ 1.43u, and the input protein levels are shown underneath.
Cells were transfected with pcDNA3.1a-ubiquitin (His-tagged) and treated as described. Briefly cells were harvested into 8 M urea, 0.1 M Na2HPO4/NaH2PO4, 0.01 M Tris-HCl, and pH 8.0. Cell lysate was incubated with nickel (Ni^2+-NTA)-agarose beads (Qiagen), 5 mM imidazole and 10 mM β-mercapthoethanol overnight at 4° C. The beads were collected and washed as described (Liu and Warbrick, 2006). Bound proteins were then eluted and assayed by immunoblotting.

C33A cells = assay: Apoptosis upon PRMT5 depletion in C33A cells; details: PRMT5 vs control siRNA
Procedure: (§1) The graph (i) represents the relative number of sub-G I cells (compared to the control treatment) in the indicated conditions; and (ii) the level of PRMT5 and E2F-1; n=3.
Cleaved PARP is indicated by the arrow.
(§2) Cells were transfected with the indicated expression vectors together with pBB14-GFP (for 48 h) to monitor transfection efficiency or siRNA (for 48 h or 72 h) with or without treatment of the DNA damage agent for the last 16 h. Then, cells were fixed and stained with propidium iodide and analyzed by Flow Cytometry.

U2OS cells = assay: Apoptosis (sub-G1) by FACS in U2OS cells; details: n=3
Procedure: Whether arginine methylation influences E2F-1-dependent apoptosis was investigated by comparing the ability of wild-type E2F-1 to the KK and KKK mutants to induce cells with a sub-G1 DNA content (Stevens et al 2003). […] U2OS cells were transfected with expression vectors encoding wild-type E2F-1, KK and KKK as indicated for 48 h and analysed by FACS as described. The graph represents the relative change in sub-G1 populations compared to the empty vector control treatment; n=2.
as §1
(§3) PRMT5 (P) or control (C) non-targeting siRNA (25 nM) was transfected into HCT116 p53+/+ (i), HCT116 p53−/− (ii) or U2OS (iii) cells and the cells were harvested 72 h post-transfection and analysed by FACS. The graph represents the actual number of sub-G1 cells in the indicated conditions, and the immunoblot the level of PRMT5 and actin control; n=3.
PRMT5 (P), E2F-1 (E) or control (C) non-targeting siRNA was transfected into U2OS cells and harvested 72 h post-transfection and analysed by FACS as described.
as §2

SAOS2 = assay: Apoptosis (sub-G1) by FACS in SAOS2 cells with ectopic E2F-1; details: SAOS2 with wild-type E2F-1 expression vector 1 μg, 72 h; n=3
Procedure: PRMT5 (P) or control (C) non-targeting siRNA was transfected into SAOS2 together with an expression vector encoding wild-type E2F-1 (1 μg) as indicated, harvested at 72 h and processed as described in (a); n=3. […] This is consistent with the idea that PRMT5 mediates its effects through E2F-1.
as §2

HCT116 p53+/+ = assay: Apoptosis (sub-G1) by FACS in HCT116 p53+/+ cells; details: siRNA 25 nM, 72 h, n=3
Procedure: as §3, §2

PRMT5 [2] = assay: PRMT5 depletion by siRNA in U2OS cells, E2F-1 and E2F target gene levels
From the text: The depletion of PRMT5 co-incided with increased levels of E2F-1 protein (FIG. 3c), which is compatible with the increased level and stability of the KK and KKK mutants (FIG. 3b). […] Extracts were immunoblotted with anti-PRMT5 and E2F-1, and GAPDH levels served as a loading control.
Further, E2F-1 RNA was higher under conditions of PRMT5 depletion, contrasting with the control siRNA treatment. […] RNA was extracted from cells treated as described above, and RNA levels of E2F-1 examined. RNA levels of 18S and GAPDH served as controls. […] Extracts were immunoblotted with anti-PRMT5, E2F-1, p73, Chk2, Chk1 and Cdc2 as indicated. Levels of GAPDH served as the loading control.
FIGS. 6f and 6g address the role of one of the key E2F target genes in the PRMT5 dependent apoptosis, i.e. p73. […] PRMT5 (P) or control (C) siRNA was transfected into U2OS cells and cells harvested at 72 h post-transfection. Both RNA (i) and protein (ii) levels were measured, as indicated, for p73, 18S and GAPDH (i) and PRMT5, E2F-1, p73 and GAPDH (ii). […] This experiment supports activation of the E2F1 pathway leading to apoptosis upon PRMT5 knockdown, i.e. PRMT5 normally acts to suppress activation of the pathway.
Oligofectamine transfection reagent (Invitrogen) was used to transfect cells with siRNAs for 72 h. siRNA treatment of cells was carried out using siRNA non-targeting (Dharmacon) as control or PRMT5 (5′ […] (SEQ ID NO:1)). p73 smart pool siRNA was from Dharmacon. siRNA treatment was for 72 h at 50 nM.

MEFs = assay: Apoptosis by FACS in MEFs; details: MEFs (normal non-cancer cells), 72 h; n=3
Procedure: PRMT5 (P) or control (C) non-targeting siRNA was transfected into MEFs and cells harvested at 72 h post-transfection as indicated. Cell extracts were immunoblotted with anti-PRMT5 and anti-E2F-1. Actin levels served as the loading control.
MEFs were treated as described in 6c and thereafter analysed by FACS. In FIG. 6d the black bar represents the effect of C siRNA, and clear bar the effect of P siRNA; n=3.
as §2

HCT116 p53−/− = assay: Apoptosis (sub-G1) by FACS in HCT116 p53−/− cells; details: siRNA 25 nM, 72 h, n=3
Procedure: as §3, §2

[3] = system: p73-luciferase or cyclinE-luciferase; assay: Reporter assay with E2F-responsive promoters; details: U2OS cells, PRMT5 vs control siRNA, 48 h
Procedure: To further explore the role of arginine methylation in the transcription properties of E2F-1, wild-type E2F-1 was compared with the KK and KKK mutants in a reporter-based transfection assay, using E2F-responsive promoters derived from E2F target genes. The assay was performed under conditions in which each mutant protein was expressed at an equivalent level to wild-type E2F-1 (FIG. 4aii and bii), thus ruling out any difference in activity that could be attributed to protein levels. […] FIGS. 4a and b show the transcription properties of wild-type E2F-1, KK and KKK mutants. U2OS cells were transfected with expression vectors encoding WT or mutant E2F-1 protein, together with p73-luciferase (A) or cyclinE-luciferase (B) for 48 h as indicated, and pCMV-βgal to monitor transfection efficiency. Relative luciferase activity (luciferase/βgal) is shown together with expression level of ectopic proteins; n=3. […] PRMT5 (P) or control (C) non-targeting siRNA was transfected into U2OS cells together with p73-luciferase (i) or cyclinE-luciferase (ii) for 48 h, together with pCMV-βgal to monitor transfection efficiency. Relative luciferase activity is shown together with expression level of the ectopic proteins.
Cells were transfected with expression vectors (1 μg) encoding WT or the mutant E2F-1 proteins as indicated with E2F responsive luciferase reporters, namely p73-luciferase or cyclinE-luciferase, together with pCMV-βgal to monitor transfection efficiency. Cells were harvested, lysed 48 h post-transfection and luciferase activity measured as previously described (Janson et al 2008).

Sequence of PRMT5 (Homo sapiens, UniProt O14744) (O14744 whole entry): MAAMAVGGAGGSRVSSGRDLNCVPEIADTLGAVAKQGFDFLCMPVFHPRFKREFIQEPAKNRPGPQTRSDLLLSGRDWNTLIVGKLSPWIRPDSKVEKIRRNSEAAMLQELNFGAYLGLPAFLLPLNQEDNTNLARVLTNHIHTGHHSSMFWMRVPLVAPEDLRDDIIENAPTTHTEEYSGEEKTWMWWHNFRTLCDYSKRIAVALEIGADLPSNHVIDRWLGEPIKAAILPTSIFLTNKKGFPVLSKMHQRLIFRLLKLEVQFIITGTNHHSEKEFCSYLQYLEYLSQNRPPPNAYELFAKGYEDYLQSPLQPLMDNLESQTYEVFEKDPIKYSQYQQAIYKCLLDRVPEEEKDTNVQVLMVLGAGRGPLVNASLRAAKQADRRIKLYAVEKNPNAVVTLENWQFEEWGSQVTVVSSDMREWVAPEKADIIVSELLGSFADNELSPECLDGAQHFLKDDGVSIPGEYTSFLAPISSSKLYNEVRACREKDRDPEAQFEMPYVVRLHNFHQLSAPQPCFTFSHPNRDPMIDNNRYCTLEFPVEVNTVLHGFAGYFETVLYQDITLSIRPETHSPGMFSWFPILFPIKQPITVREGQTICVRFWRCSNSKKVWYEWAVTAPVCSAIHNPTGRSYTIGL

5′ CCGCUAUUGCACCUUGGAA (SEQ ID NO:1) [PRMT5 siRNA]
E2F-1 ubiquitination (PRMT5 [1]): affects the ubiquitination of E2F-1 | apoptosis (C33A cells): increased level of apoptosis | apoptosis (sub-G1 cells) (U2OS cells; U2OS cells, 72 h post-transfection, with or without etoposide 10 μM 16 h): increased level of apoptosis | apoptosis (% sub-G1 cells) (U2OS cells; U2OS, siRNA 25 nM, 72 h): induces apoptosis | apoptosis (SAOS2): enhanced levels of apoptosis | apoptosis (% sub-G1 cells) (HCT116 p53+/+): induces apoptosis | E2F-1 protein levels (PRMT5 [2]; 72 h, with or without etoposide 10 μM): increases E2F-1 protein levels | protein levels of E2F target genes (p73, Chk1, Chk2, Cdc2) (PRMT5 [2]; 72 h, with or without etoposide or doxorubicin): induced | p73 RNA and protein levels (PRMT5 [2]; 72 h post-transfection): upregulated | E2F-1 RNA levels (PRMT5 [2]; contrasting with control siRNA): higher | apoptosis (MEFs): no apoptosis | apoptosis (% sub-G1 cells) (HCT116 p53−/−): induces apoptosis | activity of E2F-1 responsive promoters [3]: more active
